SMILES strings stand for the structures.

The assay relates to P. yoelii parasites in erythrocytes. The experiment in a line: Selenomethionine prodrug, 24 hour culture of parasitized blood, damaged parasites by flow cytometry. It is filed as cell-based. Here is the method: Blood was harvested and pooled from three mice infected with the murine Plasmodium parasite P. yoelii. Pooled blood parasitemia was 4.0%. Erythrocytes were extracted from the blood and washed to remove debris. The cells were then incubated with excess mCGL-AV for 3 hours. After incubation, the cells were then washed to remove excess protein and debris. Samples were then incubated under an oxygen reduced atmosphere mimicking the conditions of blood within the body for 24 hours with varying concentrations of selenomethionine. Damaged parasites were enumerated via flow cytometry. The number of damaged parasites is expressed as a percentage of the total number of parasites. Error bars represent the standard error of n=3 repeats of the assay for the same pooled blood.
To insure that healthy red blood cells were not damaged by such high concentrations of mCGL-AV, samples of treated and untreated blood were imaged using light microscopy to search for signs of hemolysis.

For `C[Se]CC[C@H](N)C(=O)O` [selenomethionine], the “impact on parasite viability, selenomethionine by itself” value (24 hours of culture, varying concentrations of selenomethionine, no fusion protein) is “no significant impact on parasite viability”. The “damaged parasites with selenomethionine plus mCGL-AV” value (excess mCGL-AV 3 hours, wash, then 24 hours with varying concentrations of selenomethionine) is “boosted the cytotoxicity of the fusion protein”.

Values taken from US11446365B2, “Antimalarial enzyme conjugates, kits containing same, and methods of producing and using same” (priority 2017, dated 2022).
